How the values were obtained:
human HepG2 liver cells [1] = assay: Intracellular fat content in HepG2 cells, AdipoRed/Hoechst 33258 double staining, 24 hours; format: cell-based; conditions: HepG2, 0.8 mM palmitoleic acid, 0.1 μM compound, FIG. 10B; for palmitoleic acid-induced increase of intracellular triglyceride content: vs DMSO
Experimental: The effects of Compound 13-3-1, Compound 13-3-2, Compound 13-3-3, Compound 13-3-5, Compound 13-3-6, Compound 13-3-7, Compound 15-1, Compound 13-3-10 and Compound 13-3-11, as exemplary compounds of the invention, were tested. Human HepG2 liver cells were incubated with 0.8 mM palmitoleic acid in EMEM medium for 24 hours in the presence of 0.1 μM compounds or control vehicle, DMSO. Subsequently, the cells were washed with PBS and the intracellular fat content was measured by AdipoRed/Hoechst 33258 double staining, which was assessed by flourometry.

human HepG2 liver cells [2] = assay: Intracellular fat content in HepG2 cells, AdipoRed/Hoechst 33258 double staining, 48 hours; format: cell-based; conditions: HepG2, 0.8 mM palmitoleic acid, 0.1 μM compound, FIG. 10C; for palmitoleic acid-induced increase of intracellular triglyceride content: vs DMSO
Experimental: And the effects of Compound 001, Compound 004, Compound 006, Compound 013, Compound 132, Compound 133 and Compound 134, as further exemplary compounds of the invention, were also tested. Human HepG2 liver cells were incubated with 0.8 mM palmitoleic acid in EMEM medium for 48 hours in the presence of 0.1 μM compounds of the invention or control vehicle, DMSO. Subsequently, the cells were washed with PBS and the intracellular fat content was measured by AdipoRed/Hoechst 33258 double staining, which was assessed by flourometry.

CCN(CC)CCNC(=O)c1c(C)[nH]c(/C=C2\C(=O)Nc3ccc(-c4csc(N5CCCCC5)n4)cc32)c1C [Compound 13-3-2]
inhibitory effect on fat accumulation as compared to Compound 14-3 (human HepG2 liver cells [1]): comparable or greater | palmitoleic acid-induced increase of intracellular triglyceride content (human HepG2 liver cells [1]): markedly suppressed

CCN(CC)CCNC(=O)c1c(C)[nH]c(/C=C2\C(=O)Nc3ccc(-c4csc(Nc5ccccc5)n4)cc32)c1C [Compound 13-3-1]
inhibitory effect on fat accumulation as compared to Compound 14-3 (human HepG2 liver cells [1]): comparable or greater | palmitoleic acid-induced increase of intracellular triglyceride content (human HepG2 liver cells [1]): markedly suppressed

CCN(CC)CCNC(=O)c1c(C)[nH]c(/C=C2\C(=O)Nc3cnc(-c4csc(-c5ccccc5)n4)cc32)c1C [Compound 13-3-10]
inhibitory effect on fat accumulation as compared to Compound 14-3 (human HepG2 liver cells [1]): comparable or greater | palmitoleic acid-induced increase of intracellular triglyceride content (human HepG2 liver cells [1]): markedly suppressed

[2H]C([2H])([2H])C([2H])([2H])N(C([2H])([2H])C([2H])([2H])[2H])C([2H])([2H])C([2H])([2H])NC(=O)c1c(C)[nH]c(/C=C2\C(=O)Nc3ccc(-c4csc(-c5ccccc5)n4)cc32)c1C [Compound 004]
inhibitory effect on fat accumulation as compared to Compound 14-3 (human HepG2 liver cells [2]): comparable or greater | palmitoleic acid-induced increase of intracellular triglyceride content (human HepG2 liver cells [2]): markedly suppressed

CCN(CC)CCNC(=O)CCc1c(C)[nH]c(/C=C2\C(=O)Nc3ccc(-c4csc(-c5ccccc5)n4)cc32)c1C [Compound 13-3-7]
inhibitory effect on fat accumulation as compared to Compound 14-3 (human HepG2 liver cells [1]): comparable or greater | palmitoleic acid-induced increase of intracellular triglyceride content (human HepG2 liver cells [1]): markedly suppressed

CCN(CC)CCNC(=O)c1c(C)[nH]c(/C=C2\C(=O)Nc3ccc(C4CCN(c5ccccc5)CC4)cc32)c1C [Compound 13-3-11]
inhibitory effect on fat accumulation as compared to Compound 14-3 (human HepG2 liver cells [1]): comparable or greater | palmitoleic acid-induced increase of intracellular triglyceride content (human HepG2 liver cells [1]): markedly suppressed

CCN(CC)CCC(=O)N1CCN(c2ccc(/C=C3\C(=O)Nc4ccc(-c5csc(-c6ccccc6)n5)cc43)cc2)CC1 [Compound 13-3-6]
inhibitory effect on fat accumulation as compared to Compound 14-3 (human HepG2 liver cells [1]): comparable or greater | palmitoleic acid-induced increase of intracellular triglyceride content (human HepG2 liver cells [1]): markedly suppressed

CCN(CC)CCNC(=O)c1c(C)[nH]c(/C=C2\C(=O)Nc3cccc(-c4cnc(OC)nc4)c32)c1C [Compound 13-3-5]
inhibitory effect on fat accumulation as compared to Compound 14-3 (human HepG2 liver cells [1]): comparable or greater | palmitoleic acid-induced increase of intracellular triglyceride content (human HepG2 liver cells [1]): markedly suppressed

[2H]C([2H])(NC(=O)c1c(C)[nH]c(/C=C2\C(=O)Nc3ccc(-c4csc(-c5ccccc5)n4)cc32)c1C)C([2H])([2H])N(CC)CC [Compound 001]
inhibitory effect on fat accumulation as compared to Compound 14-3 (human HepG2 liver cells [2]): comparable or greater | palmitoleic acid-induced increase of intracellular triglyceride content (human HepG2 liver cells [2]): markedly suppressed

[2H]c1c([2H])c([2H])c(-c2nc(-c3ccc4c(c3)/C(=C/c3[nH]c(C)c(C(=O)NC([2H])([2H])C([2H])([2H])N(CC)CC)c3C)C(=O)N4)cs2)c([2H])c1[2H] [Compound 013]
inhibitory effect on fat accumulation as compared to Compound 14-3 (human HepG2 liver cells [2]): comparable or greater | palmitoleic acid-induced increase of intracellular triglyceride content (human HepG2 liver cells [2]): markedly suppressed

[2H]c1c([2H])c([2H])c(-c2nc(-c3ccc4c(c3)/C(=C/c3[nH]c(C)c(C(=O)NC([2H])([2H])C([2H])([2H])N(C([2H])([2H])C([2H])([2H])[2H])C([2H])([2H])C([2H])([2H])[2H])c3C)C(=O)N4)cs2)c([2H])c1[2H] [Compound 006]
inhibitory effect on fat accumulation as compared to Compound 14-3 (human HepG2 liver cells [2]): comparable or greater | palmitoleic acid-induced increase of intracellular triglyceride content (human HepG2 liver cells [2]): markedly suppressed

Cc1[nH]c(/C=C2\C(=O)Nc3ccc(-c4csc(-c5cccnc5)n4)cc32)c(C)c1C(=O)N1CCN(C)CC1 [Compound 15-1]
inhibitory effect on fat accumulation as compared to Compound 14-3 (human HepG2 liver cells [1]): comparable or greater | palmitoleic acid-induced increase of intracellular triglyceride content (human HepG2 liver cells [1]): markedly suppressed

From patent publication US12390460B2, “Treatment for obesity” (1GLOBE BIOMEDICAL CO., LTD., priority 2018, dated 2025)
